Data published in PubChem BioAssay AID1963849 (Molecular Pharmacology Branch, DTP, NCI, 2024).

Test system: 299254-011-R-J1-PDC complex spheroid viability
Experiment: Anticancer human tumor 299254-011-R-J1-PDC patient-derived melanoma cell line growth inhibition [POLQ]
Conditions: for IC50: curve of first compound; for viability, T/C: stronger effect = lower value
Summary of the method: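 Three-cell-type spheroids modelling solid tumor plus stroma served as the readout system; POL inhibitors were tested individually and in combination, concentration ranges set by clinical Cmax where known.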

[1] = second compound 0.0316 µM, first compound 0.0316 µM
[2] = second compound 0.0316 µM, first compound 0.1 µM
[3] = second compound 0.0316 µM, first compound 0.316 µM
[4] = second compound 0.0316 µM, first compound 1 µM
[5] = second compound 0.1 µM, first compound 0.0316 µM
[6] = second compound 0.1 µM, first compound 0.1 µM
[7] = second compound 0.1 µM, first compound 0.316 µM
[8] = second compound 0.1 µM, first compound 1 µM
[9] = second compound 0.316 µM, first compound 0.0316 µM
[10] = second compound 0.316 µM, first compound 0.1 µM
[11] = second compound 0.316 µM, first compound 0.316 µM
[12] = second compound 0.316 µM, first compound 1 µM
[13] = second compound 1 µM, first compound 0.0316 µM
[14] = second compound 1 µM, first compound 0.1 µM
[15] = second compound 1 µM, first compound 0.316 µM
[16] = second compound 1 µM, first compound 1 µM
[17] = second compound 3.16 µM, first compound 0.0316 µM
[18] = second compound 3.16 µM, first compound 0.1 µM
[19] = second compound 3.16 µM, first compound 0.316 µM
[20] = second compound 3.16 µM, first compound 1 µM
[21] = second compound 10 µM, first compound 0.0316 µM
[22] = second compound 10 µM, first compound 0.1 µM
[23] = second compound 10 µM, first compound 0.316 µM
[24] = second compound 10 µM, first compound 1 µM
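Note: spheroids exposed to drugs for one week before measurement.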
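Throughout, for viability, T/C: percent viability relative to DMSO vehicle control taken as 100%.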

## C#Cc1c(F)ccc2cc(O)cc(-c3ncc4c(N5CC6CCC(C5)N6)nc(OCC56CCCN5CC(F)C6)nc4c3F)c12 (centres undefined) + Nc1ccc(C#CCN(C(=O)Cc2ncc(C(F)(F)F)cc2C(F)(F)F)c2ccc(F)cc2)nn1
Second compound 0.0316 µM
  IC50: > 10 µM
Second compound 0.1 µM
  IC50: > 10 µM
Second compound 0.316 µM
  IC50: > 10 µM
Second compound 1 µM
  IC50: > 10 µM
Second compound 3.16 µM
  IC50: > 10 µM
Second compound 10 µM
  IC50: > 10 µM
[1]
  viability, T/C: 106%
[2]
  viability, T/C: 108%
[3]
  viability, T/C: 106%
[4]
  viability, T/C: 112%
Second compound 0.0316 µM, first compound 3.16 µM
  viability, T/C: 116%
Second compound 0.0316 µM, first compound 10 µM
  viability, T/C: 82.1%
[5]
  viability, T/C: 92.3%
[6]
  viability, T/C: 109%
[7]
  viability, T/C: 110%
[8]
  viability, T/C: 104%
Second compound 0.1 µM, first compound 3.16 µM
  viability, T/C: 103%
Second compound 0.1 µM, first compound 10 µM
  viability, T/C: 90.2%
[9]
  viability, T/C: 107%
[10]
  viability, T/C: 103%
[11]
  viability, T/C: 133%
[12]
  viability, T/C: 104%
Second compound 0.316 µM, first compound 3.16 µM
  viability, T/C: 98%
Second compound 0.316 µM, first compound 10 µM
  viability, T/C: 92.4%
[13]
  viability, T/C: 114%
[14]
  viability, T/C: 102%
[15]
  viability, T/C: 104%
[16]
  viability, T/C: 136%
Second compound 1 µM, first compound 3.16 µM
  viability, T/C: 103%
Second compound 1 µM, first compound 10 µM
  viability, T/C: 103%
[17]
  viability, T/C: 117%
[18]
  viability, T/C: 118%
[19]
  viability, T/C: 106%
[20]
  viability, T/C: 128%
Second compound 3.16 µM, first compound 3.16 µM
  viability, T/C: 99.1%
Second compound 3.16 µM, first compound 10 µM
  viability, T/C: 86.6%
[21]
  viability, T/C: 103%
[22]
  viability, T/C: 89.5%
[23]
  viability, T/C: 92.6%
[24]
  viability, T/C: 128%
Second compound 10 µM, first compound 3.16 µM
  viability, T/C: 96.9%
Second compound 10 µM, first compound 10 µM
  viability, T/C: 68.6%

## C=CCn1c(=O)c2cnc(Nc3ccc(N4CCN(C)CC4)cc3)nc2n1-c1cccc(C(C)(C)O)n1 + Cc1cccc(N(C)C(=O)C2C(O)CCN2c2nc(C)cc(C(F)(F)F)c2C#N)c1
Second compound 0.0316 µM
  IC50: > 1 µM
Second compound 0.1 µM
  IC50: > 1 µM
Second compound 0.316 µM
  IC50: > 1 µM
Second compound 1 µM
  IC50: > 1 µM
Second compound 3.16 µM
  IC50: > 1 µM
Second compound 10 µM
  IC50: > 1 µM
Second compound 0.0316 µM, first compound 0.00316 µM
  viability, T/C: 98.3%
Second compound 0.0316 µM, first compound 0.01 µM
  viability, T/C: 119%
[1]
  viability, T/C: 96%
[2]
  viability, T/C: 116%
[3]
  viability, T/C: 103%
[4]
  viability, T/C: 62.1%
Second compound 0.1 µM, first compound 0.00316 µM
  viability, T/C: 101%
Second compound 0.1 µM, first compound 0.01 µM
  viability, T/C: 103%
[5]
  viability, T/C: 106%
[6]
  viability, T/C: 103%
[7]
  viability, T/C: 90.2%
[8]
  viability, T/C: 67.4%
Second compound 0.316 µM, first compound 0.00316 µM
  viability, T/C: 111%
Second compound 0.316 µM, first compound 0.01 µM
  viability, T/C: 108%
[9]
  viability, T/C: 99.7%
[10]
  viability, T/C: 108%
[11]
  viability, T/C: 108%
[12]
  viability, T/C: 64.2%
Second compound 1 µM, first compound 0.00316 µM
  viability, T/C: 117%
Second compound 1 µM, first compound 0.01 µM
  viability, T/C: 98.6%
[13]
  viability, T/C: 110%
[14]
  viability, T/C: 99.8%
[15]
  viability, T/C: 90.5%
[16]
  viability, T/C: 57.8%
Second compound 3.16 µM, first compound 0.00316 µM
  viability, T/C: 104%
Second compound 3.16 µM, first compound 0.01 µM
  viability, T/C: 102%
[17]
  viability, T/C: 113%
[18]
  viability, T/C: 103%
[19]
  viability, T/C: 97.2%
[20]
  viability, T/C: 67%
Second compound 10 µM, first compound 0.00316 µM
  viability, T/C: 105%
Second compound 10 µM, first compound 0.01 µM
  viability, T/C: 109%
[21]
  viability, T/C: 89.4%
[22]
  viability, T/C: 96.5%
[23]
  viability, T/C: 88.2%
[24]
  viability, T/C: 59.3%
